Structures can show the parent of a compound that is named as a salt.
Tests used:
[1] = test system: α-SMA mRNA in NRK-49F cells; test: Inhibition of α-SMA mRNA in TGF-β-activated NRK-49F fibroblasts; type: cell-based, rat
Protocol: (§1) CTGF, collagen 1 and α-SMA are fibrotic markers produced by activated fibroblasts and by epithelial cells that undergo to epithelial-mesenchymal transition (EMT).
(§2) Table 2: Percentage of inhibition of collagen in epithelial cells (HK2 cells) and fibroblasts (NHDF) and percentage of inhibition of α-SMA in fibroblasts (NRK-49F and NHDF) has been determined for several compounds according the invention. In all cases, the mRNA of collagen and α-SMA has been measured, and the inhibition was evaluated in presence of a respective concentration of the tested compound. The compounds have been tested at different concentrations [mM]. All compounds reduce the expression of collagen and α-SMA in HK-2, NHDF and NRK-49F cells.

[2] = test system: collagen 1 mRNA in HK-2 cells (epithelial cells); test: Inhibition of collagen mRNA in TGF-β-treated HK-2 epithelial cells; type: cell-based; settings: for inhibition at 500 µM: HK-2, compound 0.5 mM; for Collagen HK-2 cells % inhibition: compound 0.25 mM
Protocol: as §1, §2

[3] = test system: CCl4-induced liver fibrosis mouse model; test: CCl4-induced liver fibrosis mouse model; type: in vivo, mouse (male C57BL/6); settings: CCl4 twice a week for 8 weeks; oral 100 and 200 mg/kg every day, day 1 to day 58; FIG. 22
Source text: Hepatic fibrosis is an outcome of many chronic liver diseases, including hepatitis B virus, hepatitis C virus, alcoholic liver disease, non-alcoholic steatohepatitis and diverse chronic intoxication. It was thus desired to evaluate the effect of Compound I on murine CCl4-induced liver fibrosis. Intoxication with CCl4 results in hepatocyte damage, necrosis, inflammation, and fibrosis, which spreads to link the vascular structures that feed into and drain the hepatic sinusoid (the portal tract and central vein radical, respectively), and over 8-30 weeks results in the development of fibrosis to hepatocellular carcinoma. Therefore, evaluation of candidate antifibrotic drugs such as Compound I can be undertaken by treatment of the mice at appropriate time points and histologic, biochemical and cellular readouts may be used to monitor candidate drug efficacy in this model.
CCl4 (10% in corn oil, 2 ml/kg) was intraperitoneally injected twice a week for 16 weeks in male C57BL/6. Compound I (200 mg/kg) was orally administered every day from day 1 to day 113. Mice were euthanasized and histology and liver fibrotic markers were analyzed.
To determine if Compound I has an effect on liver fibrosis, hydroxyproline level was used to measure the collagen content in the tissue, which is indicative of liver fibrosis.
The reduction of collagen level in liver tissue was also observed in histological micrographs using the Masson's Trichrome staining.
The Masson's trichrome stain the cytoplasm, keratin, muscle fibers and intracellular fibers in red colour; nuclei in black colour and collagen (fibrous tissue) in blue color.
Another experiment has been performed with Compound 1 and Compound V where CCL4 (10% in olive oil, 2 ml/kg) was intraperitoneally injected twice a week for 8 weeks in male C57BL/6. Compound 1 and compound V were orally administered (100 and 200 mg/kg) every day from day 1 to day 58. Mice were euthanasized and collagen content (marker of fibrosis) in the liver was quantified by histomorphometry using Masson's trichrome staining.

α-SMA mRNA in NHDF cells = test: Inhibition of α-SMA mRNA in TGF-β-activated NHDF fibroblasts; type: cell-based; settings: Homo sapiens, compound 0.5 mM
Protocol: as §1, §2

[4] = test system: collagen 1 mRNA in NHDF cells; test: Inhibition of collagen mRNA in TGF-β-activated NHDF fibroblasts; type: cell-based; settings: Homo sapiens, compound 0.5 mM
Protocol: as §1, §2

[5] = test system: bleomycin-induced pulmonary fibrosis mouse model; test: Bleomycin-induced pulmonary fibrosis mouse model: body weight and lung histology; type: in vivo, mouse (male C57BL6); settings: oral, Compound I 200 mg/kg, pirfenidone 400 mg/kg
Protocol: Intratracheal instillation of the anticancer drug bleomycin into the mouse results in acute inflammation followed by a chronic fibrotic response. Therefore, evaluation of candidate antifibrotic drugs such as Compound I can be undertaken by treatment of the mice at appropriate time points and histologic, biochemical and cellular readouts may be used to monitor candidate drug efficacy in this model.
(§3) Male C57BL6 mice are administered intratracheal instillation of bleomycin sulphate (0.025 U) at day 0, randomized and administered Compound I (oral administration, 100 mg/kg and 200 mg/kg) on day 7 to day 20.
Lesions score was evaluated using HEP (Hemalun with Eosin/Ploxine) and Masson's trichrome staining. Lesions score was recorded as 1) Consolidation as shown by disrupted lung architecture (cellular and/or fibrosis) and 2) Alveolar wall as shown by thickness and shrinking outside of consolidated area.
(§4) It was therefore evaluated side-by-side with Compound I in the bleomycin-induced pulmonary fibrosis mouse model by the same protocol described in Example 4 above. Compound I (200 mg/kg) and pirfenidone (400 mg/kg) were orally administered either alone or in combination.
Lesions score was evaluated using HEP (Hemalun with Eosin/Ploxine) and Masson's trichrome staining and recorded as 1) Consolidation as shown by disrupted lung architecture (cellular and/or fibrosis), and 2) Alveolar wall as shown by thickness and shrinking outside of consolidated area.
The lesions score as determined by the percentage of leukocyte infiltration (inflammatory zone) multiplied by the percentage of collagen found in the leukocyte infiltrate was quantified by histomorphometry using Masson's trichrome staining.
Visual grading of pulmonary fibrosis was also determined according to Ashcroft's score. Briefly, the entire fields of each lung section were read by a blinded examiner, and each field was visually graded from 0 to 8. Criteria for grading lung fibrosis were as follows: Grade 0=normal lung; Grade 1=minimal fibrous thickening of alveolar or bronchiolar walls; Grade 3=moderate thickening of walls without obvious damage to lung architecture; Grade 5=increased fibrosis with definitive damage to lung structure and formation of fibrous bands or small fibrous masses; Grade 7=severe distortion of structure and large fibrous area; Grade 8=total fibrous obliteration of lung fields.

[6] = test system: TGF-β, CTGF, IL-23p19, IL-6, collagen 1, fibronectin (FN-1), collagen 3 mRNA in lung tissue; test: Real-time PCR of inflammatory and fibrotic marker mRNA in lung tissue, bleomycin-induced pulmonary fibrosis mouse model; type: in vivo, mouse (male C57BL6); settings: oral, Compound I 200 mg/kg, pirfenidone 400 mg/kg, alone or combined
Protocol: as §3
Further analysis of the lung tissue was undertaken. CTGF, collagen 1 and IL-23p19 mRNA expression was quantified by real-time PCR.
as §4
In order to determine the effect of Compound I on pulmonary fibrosis, further analysis of the lung tissue was undertaken. TGF-β, CTGF, IL-23 and IL-6 mRNA expression was quantified by real-time PCR. […] Oral administration of pirfenidone had no effect on CTGF mRNA expression but decreased TGF-β, IL-23 and IL-6 mRNA expression. […]

[7] = Toxicity related to drug in the bleomycin-induced pulmonary fibrosis mouse model; type: in vivo; settings: oral, Compound I 200 mg/kg, pirfenidone 400 mg/kg, alone or in combination, solubilized in PBS
Protocol: as §4
Compound I and pirfenidone were solubilized in PBS. In the combination therapy, pirfenidone was solubilized in a solution of Compound I. No toxicity was reported with Compound I treatment.

[8] = Rattus norvegicus, NRK-49F, compound 0.25 mM
[9] = Rattus norvegicus, NRK-49F, compound 0.5 mM

## CCCCCc1cccc(C(C)C(=O)[O-])c1.[Na+] (stereo not drawn) [Compound VIII, Sodium Salt of 2-(3-pentylphenyl)propionic acid]
[1]; compound 0.25 mM
  α-SMA NRK-49F cells % inhibition: 86%

## CCCCCc1cc(F)cc(CC(=O)O)c1 [Compound III, Sodium Salt of 3-fluoro-5-pentylphenylacetic acid]
[1]; [8]
  inhibition at 250 µM: 100%
[2]; Homo sapiens
  inhibition at 500 µM: 100%

## CCCCCc1ccc(O)c(CC(=O)O)c1 [Compound V, Sodium Salt of (2-hydroxy-5-pentylphenyl)acetic acid]
[3]
  collagen content in liver (histomorphometry, Masson's trichrome): significant reduction
α-SMA mRNA in NHDF cells
  inhibition at 500 µM: 100%
[1]; [9]
  inhibition at 500 µM: 100%
[4]
  inhibition at 500 µM: 100%
[2]; Homo sapiens
  inhibition at 500 µM: 100%

## CCCCCc1cccc(C(=O)C(=O)[O-])c1.[Na+] [Compound XVIII, Sodium Salt of 2-Oxo-2-(3-pentylphenyl)acetic acid]
[1]; compound 0.25 mM
  α-SMA NRK-49F cells % inhibition: 100%

## CCCCCc1cc(CCC(=O)[O-])ccc1O.[Na+] [Compound XVII, Sodium Salt of 3-(4-Hydroxy-3-pentylphenyl)propanoic acid]
[1]; compound 0.5 mM
  α-SMA NRK-49F cells % inhibition: 66%
[2]
  Collagen HK-2 cells % inhibition: 0%

## CCCCCc1cccc(C(C)(C)C(=O)[O-])c1.[Na+] [Compound X, Sodium Salt of 2-methyl-2-(3-pentylphenyl)propionic acid]
[1]; compound 0.1 mM
  α-SMA NRK-49F cells % inhibition: 46%

## CCCCCc1cc(O)cc(CC(=O)O)c1 [Compound II, Sodium Salt of 3-hydroxy-5-pentylphenylacetic acid]
[1]; [9]
  inhibition at 500 µM: 66%
[4]
  inhibition at 500 µM: 40%
[2]; Homo sapiens
  inhibition at 500 µM: 43%

## CCCCCc1cc(O)c(Cc2ccccc2)c(CC(=O)O)c1 [Compound XX, Sodium Salt of 2-(2-Benzyl-3-hydroxy-5-pentylphenyl)acetic acid]
[1]; Rattus norvegicus, NRK-49F, compound 0.0625 mM
  inhibition at 62.5 µM: 95%
[2]; Homo sapiens, HK-2, compound 0.125 mM
  inhibition at 125 µM: 73%

## CCCCCCc1cccc(CC(=O)O)c1 [Compound XI, Sodium Salt of 2-(3-Hexylphenyl)acetic acid]
[1]; Rattus norvegicus, NRK-49F, compound 0.1 mM
  inhibition at 100 µM: 80%

## CCCCCc1cc(CC(=O)O)ccc1F [Compound XV, Sodium Salt of 2-(4-Fluoro-3-pentylphenyl)acetic acid]
[1]; [9]
  inhibition at 500 µM: 100%
[2]; Homo sapiens
  inhibition at 500 µM: 100%

## CCCCCc1cccc(CCC(=O)[O-])c1.[Na+] [Compound VII, Sodium Salt of 3-(3-pentylphenyl)propionic acid]
[1]; compound 0.25 mM
  α-SMA NRK-49F cells % inhibition: 100%

## CCCC=Cc1ccc(F)c(CC(=O)[O-])c1.[Na+] [Compound XIII, Sodium Salt of 2-(2-Fluoro-5-(pent-1-enyl)phenyl)acetic acid]
[1]; compound 0.5 mM
  α-SMA NRK-49F cells % inhibition: 84%

## CCC/C=C/c1cccc(CC(=O)O)c1 [Compound IV, Sodium Salt of E-(3-pent-1-enyl-phenyl)acetic acid]
[1]; [9]
  inhibition at 500 µM: 64%

## CCCCCc1cc(CC(=O)O)ccc1O [Compound XIV, Sodium Salt of 2-(4-Hydroxy-3-pentylphenyl)acetic acid]
[1]; [9]
  inhibition at 500 µM: 92%
[4]
  inhibition at 500 µM: 26%
[2]; Homo sapiens
  inhibition at 500 µM: 72%

## CCCCC=Cc1cccc(CC(=O)[O-])c1.[Na+] [Compound XII, Sodium Salt of 2-(3-(Hex-1-enyl)phenyl)acetic acid]
[1]; compound 0.1 mM
  α-SMA NRK-49F cells % inhibition: 49%

## CCCCCc1cccc(C(F)C(=O)[O-])c1.[Na+] (stereo not drawn) [Compound IX, Sodium Salt of 2-Fluoro-2-(3-pentylphenyl)acetic acid]
[1]; compound 0.5 mM
  α-SMA NRK-49F cells % inhibition: 82%

## Cc1ccc(=O)n(-c2ccccc2)c1 [Pirfenidone, pirfenidone, reference compound]
[5]; alone or combined, FIG. 8
  histological lesion score of lungs (HEP and Masson's trichrome): no reduction of fibrosis at the histological level
[5]; alone or combined, FIG. 11
  visual grading of pulmonary fibrosis (Ashcroft's score): weak activity
[5]; FIG. 10
  lesions and fibrosis in lungs (photomicrographs stained with HEP): no effect
[6]; FIG. 12
  TGF-β mRNA expression in lungs: decreased
[6]; FIG. 13
  CTGF mRNA expression in lungs: no effect
[6]; FIG. 14
  IL-23 mRNA expression in lungs: decreased
[6]; FIG. 15
  IL-6 mRNA expression in lungs: decreased
[6]; FIG. 18
  collagen 3 mRNA expression in lungs: no effect
[6]; reduction to the control level, FIG. 16
  collagen 1 mRNA expression in lungs: significant reduction
[6]; reduction to the control level, FIG. 17
  fibronectin (FN-1) mRNA expression in lungs: significant reduction
[7]
  Toxicity related to drug: Vertigo ++++
[7]; listed as pirfenidone
  Toxicity related to drug: severe vertigo

## CCCCCc1cccc(CC(=O)[O-])c1O.[Na+] [Compound XIX, Sodium Salt of 2-(2-Hydroxy-3-pentylphenyl)acetic acid]
[1]; compound 0.25 mM
  α-SMA NRK-49F cells % inhibition: 100%
[2]
  Collagen HK-2 cells % inhibition: 100%

## CCCCCc1cccc(CC(=O)O)c1F [Compound XVI, Sodium Salt of 2-(2-Fluoro-3-pentylphenyl)acetic acid]
[1]; [8]
  inhibition at 250 µM: 100%
[2]; Homo sapiens
  inhibition at 500 µM: 100%

## CCCCCc1cc(CCC(=O)O)ccc1F [Compound VI, Sodium Salt of 3-(4-fluoro-3-pentylphenyl)propionic acid]
[1]; Rattus norvegicus, NRK-49F, compound 0.125 mM
  inhibition at 125 µM: 90%
